Assays:
TNF-α = TNF-α ELISA in LPS-stimulated PBMC-derived monocytes; assay type: cell-based, human; conditions: LPS 10 ng/ml 2 hrs, starved 1 hr, 4 uM for 2 hrs, ELISA of culture medium
Procedure: PBMC (peripheral blood mononuclear cell) was separated from the blood samples (50 ml) collected from healthy subjects using Ficoll-Paque™ PLUS (CYTIVA™, Piscataway, N.J., USA). PBMCs were then enriched in complete RPMI 1640 medium containing 20% of human serum, followed by transferring to 100 mm polystyrene cell culture plate coated with human serum for 30 mins. […]
To see the effect of PEP-1 on TNF-α level in terms of protein expression level. […] After culturing, cell soup was collected, and the amount of TNF-α was measured using ELISA kit (R&D, Minneapolis, Minn., USA) as follows:
TNF measurement uses sandwich ELISA method. […] Again, plate was washed, and avidin/biotin was added for measuring the absorbance. TNF-α level of each sample was quantified using the standard graph calculated from the absorbance of standard solution.
PBMC-derived monocytes were stimulated with endotoxin LPS (10 ng/ml) for 2 hrs, starved for 1 hr using OPTI-MEM®, and then 4 uM of FITC, FITC-TAT, PEP 1-FITC and FITC-PEP 1 were treated for 2 hrs. After incubation, TNF-α level was measured with cell culture medium using ELISA.

neural stem cells = assay: Amyloid-β toxicity assessment on neural stem cells; assay type: cell-based, rat; conditions: 20 μM amyloid-β protein, 48 hours
Procedure: After removing the cortex from the head of an embryonic rat that had been pregnant for 13 days, it was cultured for a week with Basic Fibroblast Growth Factor (bFGF) to obtain the neural stem cells. To analyze the effects of the amyloid-β protein on the neural stem cells, the pre-oligomerized amyloid-β protein of concentrations 0 to 40 μM was treated on neural stem cells for 48 hours, then CCK-8 assay, BrdU, and TUNEL assay were used for cytotoxicity assessment (refer from BA Yankner et al, 1990 and K N Dahlgren et al, 2002).

e-NOS = assay: 2D-electrophoresis protein expression in neural stem cells; assay type: cell-based, rat; conditions: 20 ug β-amyloid treated group, versus negative control 1.0
Procedure: (§1) Protein expression level of PEP-1 treated group and untreated group was analyzed by 2D-electrophoresis technique and antibody microarray technique. Prepared 200 μg by extracting proteome from the neural stem cells cultured in Experiment 3-1 of Example 3. In addition, the group in which PEP-1 was not treated was used as the comparison group in the same condition.
(§2) 2D-electrophoresis was performed using 12% acrylamide gels. First gel electrophoresis was performed at PI 4˜10 N, using a gel size of 8.5×7 cm. After electrophoresis, it was dyed with Colloidal Coomassie Blue, and then compared expression by using PDQuest software to analyze each spot.
(§3) Difference in the expression levels of more than 1.5 times was identified using MALDI-TOF MS (Matrix Desorption/Ionization Time of Flight Mass Spectromestry). Among these, proteins correlated with inflammation-related signaling, such as i-NOS and HMGB-1 were identified (Refer to Table 6). The changes in protein expression levels either increased or decreased by 1.5 times by amyloid-β protein, but it was confirmed that expression level was regulated close to that of negative control when PEP-1 was added (Refer to FIGS. 14A-14B).
(§4) The Table 6 below is an analysis of expression levels of proteins associated with inflammation by 2D electrophoresis technique. The control group represents protein expression level of cells that were not treated with neither amyloid-β protein nor PEP-1.

GADD 153 = assay: as above; assay type: cell-based, rat; conditions: 20 ug β-amyloid treated group, versus negative control 1.0
Procedure: as §1, §2, §3, §4

Pyk2 = assay: as above; assay type: cell-based, rat; conditions: 20 ug β-amyloid treated group, versus negative control 1.0
Procedure: as §1, §2, §3, §4

HSP 70 = assay: as above; assay type: cell-based, rat; conditions: 20 ug β-amyloid treated group, versus negative control 1.0
Procedure: as §1, §2, §3, §4

HMGB1 = assay: as above; assay type: cell-based, rat; conditions: 20 ug β-amyloid treated group, versus negative control 1.0
Procedure: as §1, §2, §3, §4

i-NOS = assay: as above; assay type: cell-based, rat; conditions: 20 ug β-amyloid treated group, versus negative control 1.0
Procedure: as §1, §2, §3, §4

HSP 90 = assay: as above; assay type: cell-based, rat; conditions: 20 ug β-amyloid treated group, versus negative control 1.0
Procedure: as §1, §2, §3, §4

MAP Kinase = assay: as above; assay type: cell-based, rat; conditions: 20 ug β-amyloid treated group, versus negative control 1.0
Procedure: as §1, §2, §3, §4

Row | Substance | TNF-α level (TNF-α) [ng/mL] | cell survival (neural stem cells) [%] | e-NOS expression (fold) (e-NOS) | GADD 153 expression (fold) (GADD 153) | Pyk2 expression (fold) (Pyk2) | HSP 70 expression (fold) (HSP 70) | HMGB1 expression (fold) (HMGB1) | i-NOS expression (fold) (i-NOS) | HSP 90 expression (fold) (HSP 90) | MAP Kinase expression (fold) (MAP Kinase)
1 | Fluorescein Isothiocyanate [FITC] | 6.2 | – | – | – | – | – | – | – | – | –
2 | amyloid-β protein [reference compound] | – | 60 | 1.9 | 1.6 | 2.0 | −2.3 | −1.5 | 1.9 | −1.8 | 2.2

Source: patent US11369665B2, “Anti-inflammatory peptides and composition comprising the same” (GemVax & KAEL Co., Ltd., priority 2012, dated 2022)
